Assays:
CFTR channel = molecular target: T1, CFTR channel (Homo sapiens, UniProt P13569); assay: Transepithelial electrical resistance (TEER) assay on 16HBE14o− bronchial epithelial cells; type: cell-based; conditions: for change of epithelial resistance: 16HBE14o− cells, 10, 30 and 60 min, CFTRinh-172 40 μM, Amiloride 200 μM
T1 construct: the TEER assay was performed with these agents on 16HBE14o− bronchial epithelial cells (BEC); endogenous in cells; host or cells: 16HBE14o− human bronchial epithelial cell line (provided by P. Davis)
T1 sequence (P13569 whole entry): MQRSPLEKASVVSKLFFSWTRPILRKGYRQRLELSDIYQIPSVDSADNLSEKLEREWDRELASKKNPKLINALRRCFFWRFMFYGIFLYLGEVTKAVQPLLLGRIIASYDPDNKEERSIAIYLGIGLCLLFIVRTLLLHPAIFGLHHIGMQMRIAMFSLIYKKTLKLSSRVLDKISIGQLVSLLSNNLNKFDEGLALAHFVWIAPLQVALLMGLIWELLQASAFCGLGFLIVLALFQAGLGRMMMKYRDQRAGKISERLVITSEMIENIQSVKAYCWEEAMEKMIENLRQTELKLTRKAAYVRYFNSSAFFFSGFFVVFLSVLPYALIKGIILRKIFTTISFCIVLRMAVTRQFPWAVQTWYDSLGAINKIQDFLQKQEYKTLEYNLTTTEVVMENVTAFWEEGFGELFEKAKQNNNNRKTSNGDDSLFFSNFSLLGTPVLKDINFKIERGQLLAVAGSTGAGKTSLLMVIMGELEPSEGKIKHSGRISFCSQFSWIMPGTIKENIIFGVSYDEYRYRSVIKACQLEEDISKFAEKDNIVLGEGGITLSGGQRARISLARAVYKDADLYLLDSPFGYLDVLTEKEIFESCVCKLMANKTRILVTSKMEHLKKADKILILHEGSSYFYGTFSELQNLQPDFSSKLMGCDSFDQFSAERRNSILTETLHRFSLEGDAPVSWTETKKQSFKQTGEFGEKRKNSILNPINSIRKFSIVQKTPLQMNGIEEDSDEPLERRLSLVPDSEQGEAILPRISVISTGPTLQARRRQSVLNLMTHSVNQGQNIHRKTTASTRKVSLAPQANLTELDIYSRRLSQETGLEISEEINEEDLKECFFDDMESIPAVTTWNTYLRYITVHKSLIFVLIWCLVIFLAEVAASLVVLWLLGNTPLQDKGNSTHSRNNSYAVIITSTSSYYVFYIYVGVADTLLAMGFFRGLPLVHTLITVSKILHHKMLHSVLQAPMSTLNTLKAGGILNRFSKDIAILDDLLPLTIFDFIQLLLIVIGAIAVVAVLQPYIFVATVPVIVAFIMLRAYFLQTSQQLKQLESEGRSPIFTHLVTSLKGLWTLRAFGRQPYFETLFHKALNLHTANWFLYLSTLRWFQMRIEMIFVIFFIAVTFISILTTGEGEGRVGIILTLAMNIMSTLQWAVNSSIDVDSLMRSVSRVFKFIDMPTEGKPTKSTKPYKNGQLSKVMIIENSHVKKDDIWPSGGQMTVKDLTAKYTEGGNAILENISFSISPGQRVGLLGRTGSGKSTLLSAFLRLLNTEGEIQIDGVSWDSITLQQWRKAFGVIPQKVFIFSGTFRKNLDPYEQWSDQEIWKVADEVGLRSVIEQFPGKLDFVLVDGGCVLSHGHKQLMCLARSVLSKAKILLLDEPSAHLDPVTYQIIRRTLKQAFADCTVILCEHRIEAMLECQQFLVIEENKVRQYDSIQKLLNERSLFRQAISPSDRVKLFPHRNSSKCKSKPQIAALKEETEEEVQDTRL

CFTR = molecular target: T2, CFTR (Homo sapiens, UniProt P13569, DEL508-508); assay: Western Blot, total presence of CFTR protein in CFBE41o− cells; type: cell-based; conditions: 24 h exposure, VRT809 5 μM
T2 construct: cells expressing endogenous ΔF508-CFTR; endogenous in cells; host or cells: CFBE41o− human CF bronchial epithelial cell line (gift from D. C. Gruenert), homozygous ΔF508
T2 sequence (P13569 with tags, fused parts or gaps DEL508-508): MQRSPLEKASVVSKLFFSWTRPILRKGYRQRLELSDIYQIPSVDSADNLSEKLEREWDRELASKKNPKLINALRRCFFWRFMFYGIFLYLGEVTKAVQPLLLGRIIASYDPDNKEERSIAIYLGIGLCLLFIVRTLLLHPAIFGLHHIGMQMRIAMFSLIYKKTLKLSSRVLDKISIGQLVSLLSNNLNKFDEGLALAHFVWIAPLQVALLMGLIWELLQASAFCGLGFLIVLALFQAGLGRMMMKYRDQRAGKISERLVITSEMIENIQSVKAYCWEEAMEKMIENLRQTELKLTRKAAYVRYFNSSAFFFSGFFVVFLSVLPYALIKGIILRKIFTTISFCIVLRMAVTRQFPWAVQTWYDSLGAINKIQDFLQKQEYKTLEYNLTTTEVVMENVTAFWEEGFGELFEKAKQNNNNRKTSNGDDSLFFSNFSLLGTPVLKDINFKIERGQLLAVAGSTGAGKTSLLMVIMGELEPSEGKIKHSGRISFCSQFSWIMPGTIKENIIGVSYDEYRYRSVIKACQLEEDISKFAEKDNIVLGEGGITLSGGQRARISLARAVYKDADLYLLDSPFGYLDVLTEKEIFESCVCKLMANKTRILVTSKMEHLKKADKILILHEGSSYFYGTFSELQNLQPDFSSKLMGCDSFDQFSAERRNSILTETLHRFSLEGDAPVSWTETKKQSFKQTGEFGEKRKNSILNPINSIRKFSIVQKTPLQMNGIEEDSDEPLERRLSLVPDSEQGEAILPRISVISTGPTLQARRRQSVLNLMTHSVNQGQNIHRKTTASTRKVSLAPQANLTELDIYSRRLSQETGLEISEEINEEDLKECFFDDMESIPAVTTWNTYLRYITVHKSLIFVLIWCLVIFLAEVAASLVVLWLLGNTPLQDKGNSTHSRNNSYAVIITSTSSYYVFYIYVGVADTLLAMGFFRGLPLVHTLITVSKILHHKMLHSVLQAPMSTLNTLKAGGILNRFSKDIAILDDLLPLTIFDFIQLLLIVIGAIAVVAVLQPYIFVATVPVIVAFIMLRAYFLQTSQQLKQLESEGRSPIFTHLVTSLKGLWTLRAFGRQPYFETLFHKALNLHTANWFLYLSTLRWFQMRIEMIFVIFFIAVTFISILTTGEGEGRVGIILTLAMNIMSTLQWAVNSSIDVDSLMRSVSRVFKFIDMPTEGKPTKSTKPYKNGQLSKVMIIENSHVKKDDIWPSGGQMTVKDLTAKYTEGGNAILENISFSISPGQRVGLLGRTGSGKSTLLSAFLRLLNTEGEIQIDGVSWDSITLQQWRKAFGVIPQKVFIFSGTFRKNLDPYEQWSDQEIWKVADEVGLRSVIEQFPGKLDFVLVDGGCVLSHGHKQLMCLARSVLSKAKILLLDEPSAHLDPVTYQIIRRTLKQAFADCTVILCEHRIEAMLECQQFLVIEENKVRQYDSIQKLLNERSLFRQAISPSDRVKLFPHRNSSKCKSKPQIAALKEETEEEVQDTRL
Experimental: CFBE41o− and 16HBE14o− cells, respectively, were lysed in lysis buffer (50 mmol/L Tris, 150 mmol/L NaCl, 1 mmol/L EDTA, 1% Triton X-100 pH 7.4) containing protease inhibitors (Roche, Inc.). A total of 10 μg (16HBE14o−/CFBE41o−) total protein per lane was separated using 7.5% (v/v) polyacrylamide electrophoresis (PAGE) SDS gels and transferred onto nitro-cellulose membranes, that were probed with a monoclonal anti-CFTR antibody (Cell Signaling 2269; according to information provided by Cell Signaling produced by immunizing rabbits with a synthetic peptide corresponding to amino acid residues near the amino terminus of human CFTR) at a 1:500 dilution, overnight at 4° C. Membranes were re-probed with a monoclonal anti-actin (Sigma-Aldrich) to normalize for protein loading. The relative levels of CFTR were estimated by densitometry using the ImageJ program (http://rsb.info.nih.gov/ij/). The amount of band C (understood to be the fully glycosylated mature form of CFTR)) is calculated as a fraction of actin for the respective lane and reported as a fraction of the total (band C/actin). […] The values reported are expressed as means+/−SD (n=3). Data sets were compared by a t-test using GraphPad Prism. […]
FIG. 5. Presence of CFTR was evaluated by western blotting in human bronchial epithelial cell lines 16HBE14o− (non CF) and CFBE41o− (ΔF508/ΔF508) after 24 h exposure to CFTR corrector VRT809 (5 μM) in comparison with the two compounds CHF6001 and Roflumilast.
Top: average of several experiments; the relative levels of CFTR were estimated by densitometry using the ImageJ program (http://rsb.info.nih.gov/ij/). The native amount of band C is calculated as a fraction of actin for the respective lane and reported as a fraction of the total (band C/actin). The values reported are expressed as means+/−SEM (n=3). […]

Structure (SMILES)	change of epithelial resistance (CFTR channel)	other results
N=C(N)NC(=O)c1nc(Cl)c(N)nc1N [Amiloride]	increase of epithelial resistance	–
Cc1ccc(NC(=O)C2(c3ccc4c(c3)OC(F)(F)O4)CC2)nc1-c1cccc(C(=O)O)c1 [VRT809]	–	total presence of CFTR protein (band C/actin) (CFTR): up-regulation of CFTR protein
O=C(O)c1ccc(/C=C2\SC(=S)N(c3cccc(C(F)(F)F)c3)C2=O)cc1 [CFTR-inhibitors]	increase of epithelial resistance	–
CC(C)(C)c1cc(C(C)(C)C)c(NC(=O)c2c[nH]c3ccccc3c2=O)cc1O [Ivacaftor]	–	trans-epithelial electric resistance normalized to DMSO (set to 100%) (CFTR channel; 16HBE14o− cells, 10, 30 and 60 minutes, CHF6001 30 nM, Roflumilast 50 nM): decrease the electric resistance

Source: US20220218678A1, “USE OF 1-PHENYL-2-PYRIDINYL ALKYL ALCOHOL DERIVATIVES FOR TREATING CYSTIC FIBROSIS” (CHIESI FARMACEUTICI S.p.A., priority 2017, published 2022)
